Assay results from patent publication US8993523B2, “Dimeric IAP inhibitors” (Novartis AG, priority 2010, dated 2015).

What was measured:
xenograft tumors = assay: In vivo combination study in xenograft tumor mice; conditions: 1× per week, mice with xenograft tumors, 2-3 weeks
Method: In vivo combination studies were performed as follows. Cohorts of mice (n=8) were treated with (1) Cohort A: Example 1A (1.8 mg/kg, 1× per week), (2) Cohort B: Paclitaxel (12 mg/kg, 1× per week), or (3) Cohort C: a combination of Example 1A (1.8 mg/kg, 1× per week)+Paclitaxel (12 mg/kg, 1× per week). Studies typically initiated dosing when xenograft tumors were 200 mm^3 and lasted 2-3 weeks. Positive combination activity occurs when neither single agent treatment alone results in tumor regression (i.e. increase in tumor volume is not inhibited in treated animals) but the combination results in tumor regression (i.e. tumor volume decreases in treated animals).

cIAP1-BIR3 = target: T1, cIAP1-BIR3 (Homo sapiens, UniProt Q13490); assay: Biacore SPR solution inhibition (competition with smac7mer peptide) binding assay, cIAP1-BIR3; conditions: 6 nM cIAP1-BIR3, competition with immobilised smac7mer peptide, 25° C.; read-out: CIAP-BIR3 Binding Biacore (Competitive) EC50
T1 construct: with either 100 nM XIAP-BIR3 or 6 nM cIAP1-BIR3
T1 sequence (Q13490 260-352 limits assumed): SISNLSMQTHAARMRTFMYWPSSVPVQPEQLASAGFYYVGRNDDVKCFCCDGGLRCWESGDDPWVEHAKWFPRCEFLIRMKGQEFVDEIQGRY
Text: (§1) The present method includes utility of a Surface plasmon resonance (SPR)-based biosensor (Biacore™ GE Healthcare, Uppsala, Sweden) to examine competition between the compounds of the present invention and smac7mer peptide for XIAP-BIR3 and cIAP1-BIR3 binding groove occupancy.
(§2) Biacore™ utilizes the phenomenon of surface plasmon resonance (SPR) to detect and measure binding interactions. In a typical Biacore experiment, one of the interacting molecules is immobilized on a flexible dextran matrix while the interacting partner is flowed over the derivatized surface. A binding interaction results in an increase in mass on the sensor surface and a corresponding direct change in the refractive index of the medium in the vicinity of the sensor surface. Changes in refractive index or signal are recorded in resonance units (R.U.) Signal changes due to association and dissociation of complexes are monitored in a non-invasive manner, continuously and in real-time, the results of which are reported in the form of a sensorgram.
(§3) Solution Inhibition Assay Format:
(§4) Biacore™ T100 (GE Healthcare, Uppsala, Sweden) was used to conduct all experiments reported herein. Sensor surface preparation and interaction analyses were performed at 25° C. Buffer and Biacore reagents were purchased from GE Healthcare. Running buffer containing 10 mM Hepes, pH7.4, 150 mM sodium chloride, 1.25 mM Dithiothreitol, 2% Dimethyl sulfoxide and 0.05% polysorbate 20 was utilized throughout all experiments.
(§5) Biotinylated smac7mer peptide was diluted to 10 nM in running buffer and captured onto a sensor surface pre-derivatized with streptavidin (sensor chip SA) towards peptide surface densities in the range 40-100 R.U. Peptide captured surfaces were blocked with 500 μM PEO2-Biotin (Thermo Scientific).
(§6) Interaction analyses were performed by first equilibrating each compound within a six point seven fold compound dilution series in the range 1 μM to 0.06 nM with either 100 nM XIAP-BIR3 or 6 nM cIAP1-BIR3 for at least one hour during instrument start-up procedures. Protein compound mixtures were then injected over reference and smac7mer peptide surfaces in series for 60 seconds at a flow-rate of 60 μL/min. Surface regeneration was performed at the end of each analysis cycle by a 30 second injection of 10 mM Glycine, pH 2.5, 1M Sodium Chloride, 0.05% polysorbate 20. Additionally, control compound samples and control XIAP-BIR3 or cIAP1-BIR3 samples were prepared and run at regular intervals to monitor surface and assay performance.
(§7) Data analyses were carried out using Biacore™ T100 evaluation software v2.0 to validate assay quality. Binding level report points were plotted versus logarithmic compound concentration values and analyzed in Graphpad prism 5 via non-linear regression using a one-site competition model. EC50 values were generated and used as a measure of inhibitor potency.

Panc3.27 tumor cells = assay: Cellular assay: Panc3.27 tumor cell proliferation (Cell Titer Glo); format: cell-based; conditions: Panc3.27 cells, 72 hour treatment, read-out: PANC proliferation IC50
Method: Cellular Assay—Treatment of Panc3.27 Tumor Cells with Dimeric IAP Antagonists
On day one adherent Panc3.27 cells are plated into two 96-well, clear, flat bottom plates. All wells in row A contain 90 uL of media. All wells in rows B-G contain a total volume of 90 uL per well and 4000 cells per well for Panc3.27 cell lines. Plates are then incubated overnight for 18 hours at 37° C., 5% CO2.
On day two cells are treated with the compounds of formula M-L-M′. Treatments are done in triplicate. The compounds are first serially diluted in DMSO and then added to media giving a final concentration of 0.2% DMSO when added to cells. Cells are treated with 10 uL of serially diluted compounds of formula M-L-M′ at a final concentration of 1000 nM, 200 nM, 40 nM, 8 nM, 1.6 nM, 0.32 nM, 0.06 nM, 0.013 nM, 0.0026 nM, and one untreated well. Plate two is used as a time zero plate.
To measure cell viability 50 uL of Cell Titer Glo (CTG) solution is added to row A, media only and B, cells and media. CTG is purchased from Promega Corporation catalog number G7573. The solution is prepared according to manufacturer's instructions. CTG measures the amount of ATP released from viable cells that is proportional to the number of cells in each well. After incubating for ten minutes with CTG plates are measured on a luminescent reader at 700 nm wavelength. Read time is approximately one second per well for a 96-well plate.
On day five 50 uL of CTG is added to plate one, rows A-G, incubated for 10 minutes at room temperature and read on a luminescent reader. Raw data is adjusted to account for the time zero plate as well as background noise. Triplicate values are averaged and percent control growth is calculated. Percent control growth is calculated using the following logical test: If well read data point (a) is greater than time zero data point (t=0), then 100*[(a)−(t=0)]/[(72 hour total growth)−(t=0)], OR 100*[(a)−(t=0)]/[(t=0)]. Data is represented by line graph with the concentration of compound on the x axis and percent control growth on the y axis.

XIAP-BIR3 = target: T2, XIAP-BIR3 (Homo sapiens, UniProt P98170); assay: Biacore SPR solution inhibition (competition with smac7mer peptide) binding assay, XIAP-BIR3; conditions: 100 nM XIAP-BIR3, competition with immobilised smac7mer peptide, 25° C.; read-out: XIAP-BIR3 Binding Biacore (Competitive) EC50
T2 construct: with either 100 nM XIAP-BIR3 or 6 nM cIAP1-BIR3
T2 sequence (P98170 241-356 limits assumed): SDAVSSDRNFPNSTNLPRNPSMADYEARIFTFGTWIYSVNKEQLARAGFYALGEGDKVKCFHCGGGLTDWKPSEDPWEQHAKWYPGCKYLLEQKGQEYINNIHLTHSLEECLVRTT
Text: as §1, §2, §3, §4, §5, §6, §7

Row | EC50 (cIAP1-BIR3) | IC50 (Panc3.27 tumor cells) | EC50 (XIAP-BIR3) | SMILES | tumor response, single agent (xenograft tumors; Cohort A: 1.8 mg/kg) | tumor growth control (xenograft tumors; Cohort B: 12 mg/kg)
1 | 0.24 to 0.57 nM | 0.0026 to 0.83 nM | 34.5 to 56.9 nM | CN[C@@H](C)C(=O)N[C@H](C(=O)N1CCC[C@H]1c1cncc(-n2ccc3c(C(=O)NCCCOCCOCCCNC(=O)c4cccc5c4ccn5-c4cncc([C@@H]5CCCN5C(=O)[C@@H](NC(=O)[C@H](C)NC)C(C)C)c4)cccc32)c1)C(C)C [Example 1A, (S,S,S)—N,N′-(3,3′-(Ethane-1,2-diylbis(oxy))bis(propane-3,1-diyl))bis(1-(5-((S)-1-((S)-3-methyl-2-((S)-2-(methylamino)-propanamido)butanoyl)pyrrolidin-2-yl)pyridin-3-yl)-1H-indole-4-carboxamide)] | tumor stasis was achieved | –
2 | – | – | – | CC(=O)O[C@H]1C(=O)[C@@]2(C)[C@H]([C@H](OC(=O)c3ccccc3)[C@]3(O)C[C@H](OC(=O)[C@H](O)[C@@H](NC(=O)c4ccccc4)c4ccccc4)C(C)=C1C3(C)C)[C@]1(OC(C)=O)CO[C@@H]1C[C@@H]2O [Paclitaxel, reference compound] | – | > 50%
3 | 1.2 to 1.22 nM | 2.61 to 2.75 nM | 76 to 76.7 nM | CN[C@@H](C)C(=O)N[C@H](C(=O)N1CCC[C@H]1c1cncc(-n2ccc3c(C(=O)N[C@H]4CCCC[C@@H]4NC(=O)c4cccc5c4ccn5-c4cncc([C@@H]5CCCN5C(=O)[C@@H](NC(=O)[C@H](C)NC)C(C)C)c4)cccc32)c1)C(C)C [Example 1D, (S,S,S)—N,N′-((1S,2S)-cyclohexane-1,2-diyl)bis(1-(5-((S)-1-((S)-3-methyl-2-((S)-2-(methylamino)propanamido)butanoyl)pyrrolidin-2-yl)pyridin-3-yl)-1H-indole-4-carboxamide)] | – | –
4 | 1.22 to 1.23 nM | < 0.0026 nM | 56.8 to 57 nM | CN[C@@H](C)C(=O)N[C@H](C(=O)N1CCC[C@H]1c1cncc(-n2ccc3c(C(=O)NCc4ccc(CNC(=O)c5cccc6c5ccn6-c5cncc([C@@H]6CCCN6C(=O)[C@@H](NC(=O)[C@H](C)NC)C(C)C)c5)cc4)cccc32)c1)C(C)C [Example 1B, (S,S,S)—N,N′-(1,4-phenylenebis(methylene))bis(1-(5-((S)-1-((S)-3-methyl-2-((S)-2-(methylamino)propanamido)butanoyl)pyrrolidin-2-yl)pyridin-3-yl)-1H-indole-4-carboxamide)] | – | –
5 | 1.66 to 1.71 nM | 0.0026 to 0.14 nM | 70.7 to 71.3 nM | CN[C@@H](C)C(=O)N[C@H](C(=O)N1CCC[C@H]1c1cncc(-n2ccc3c(C(=O)NCCCNC(=O)c4cccc5c4ccn5-c4cncc([C@@H]5CCCN5C(=O)[C@@H](NC(=O)[C@H](C)NC)C(C)C)c4)cccc32)c1)C(C)C [Example 1C, (S,S,S)—N,N′-(propane-1,3-diyl)bis(1-(5-((S)-1-((S)-3-methyl-2-((S)-2-(methylamino)propanamido)butanol)pyrrolidin-2-yl)pyridin-3-yl)-1H-indole-4-carboxamide)] | – | –
6 | 0.51 to 1.04 nM | 0.02 to 0.21 nM | 51.2 to 59.4 nM | CN[C@@H](C)C(=O)N[C@H](C(=O)N1CCC[C@H]1c1cncc(-n2cc(C(=O)NCCCOCCOCCOCCOCCOCCCNC(=O)c3cn(-c4cncc([C@@H]5CCCN5C(=O)[C@@H](NC(=O)[C@H](C)NC)C(C)C)c4)c4ccccc34)c3ccccc32)c1)C(C)C [Example 2B, (S,S,S)—N,N′-(4,7,10,13,16-pentaoxanonadecane-1,19-diyl)bis(1-(5-((S)-1-((S)-3-methyl-2-((S)-2-(methylamino)propanamido)butanoyl)pyrrolidin-2-yl)pyridin-3-yl)-1H-indole-3-carboxamide)] | – | –
7 | 0.59 nM | 0.12 to 0.17 nM | 44.7 nM | [2H]C([2H])([2H])N[C@@H](C)C(=O)N[C@H](C(=O)N1CCC[C@H]1c1cncc(-n2ccc3c(C(=O)NCCCOCCOCCCNC(=O)c4cccc5c4ccn5-c4cncc([C@@H]5CCCN5C(=O)[C@@H](NC(=O)[C@H](C)NC([2H])([2H])[2H])C(C)C)c4)cccc32)c1)C(C)C [Example 3A, (S,S,S)—N,N′-(3,3′-(ethane-1,2-diylbis(oxy))bis(propane-3,1-diyl))bis(1-(5-((S)-1-((S)-3-methyl-2-((S)-2-(trideuteromethylamino)propanamido)butanoyl)-pyrrolidin-2-yl)pyridin-3-yl)-1H-indole-4-carboxamide)] | – | –
8 | 0.21 to 0.86 nM | 0.08 to 0.28 nM | 23.5 to 55.2 nM | CN[C@@H](C)C(=O)N[C@H](C(=O)N1CCC[C@H]1c1cncc(-n2cc(C(=O)NCCNC(=O)c3cn(-c4cncc([C@@H]5CCCN5C(=O)[C@@H](NC(=O)[C@H](C)NC)C(C)C)c4)c4ccccc34)c3ccccc32)c1)C(C)C [Example 2F, (S,S,S)—N,N′-(ethane-1,2-diyl)bis(1-(5-((S)-1-((S)-3-methyl-2-((S)-2-(methylamino)propanamido)butanoyl)pyrrolidin-2-yl)pyridin-3-yl)-1H-indole-3-carboxamide)] | – | –

Row | SMILES | EC50 (cIAP1-BIR3) | IC50 (Panc3.27 tumor cells) | EC50 (XIAP-BIR3) | tumor response, single agent (xenograft tumors; Cohort A: 1.8 mg/kg) | tumor growth control (xenograft tumors; Cohort B: 12 mg/kg)
9 | CN[C@@H](C)C(=O)N[C@H](C(=O)N1CCC[C@H]1c1cncc(-n2cc(C(=O)N3CC4(C3)CN(C(=O)c3cn(-c5cncc([C@@H]6CCCN6C(=O)[C@@H](NC(=O)[C@H](C)NC)C(C)C)c5)c5ccccc35)C4)c3ccccc32)c1)C(C)C [Example 2N, (2S,2′S)—N,N′-((2S,2′S)-1,1′-((2S,2′S)-2,2′-(5,5′-(3,3′-(2,6-diazaspiro[3.3]heptane-2,6-diylbis(oxomethylene))bis(1H-indole-3,1-diyl))bis(pyridine-5,3-diyl))bis(pyrrolidine-2,1-diyl))bis(3-methyyl-1-oxobutane-2,1-diyl))bis(2-(methylamino)propanamide)] | 0.57 to 0.68 nM | 7.04 to 8.37 nM | 32.6 to 33.3 nM | – | –
